Measurements: ChEMBL document CHEMBL1154280, “Identification and characterization of a small molecule inhibitor of Fatty Acid binding proteins” (J Med Chem, 2009)
The source made the active and inactive calls. The rule behind the calls is not given here.

Assays:
[1] = molecular target: T1, Peroxisome proliferator-activated receptor gamma (Mus musculus) (UniProt P37238); assay: Binding affinity to PPARgamma in C57BL/6J mouse macrophages assessed as increase in Cpt1alpha mRNA level at 5 uM after 48 hrs by real-time PCR analysis
T1 sequence (whole entry): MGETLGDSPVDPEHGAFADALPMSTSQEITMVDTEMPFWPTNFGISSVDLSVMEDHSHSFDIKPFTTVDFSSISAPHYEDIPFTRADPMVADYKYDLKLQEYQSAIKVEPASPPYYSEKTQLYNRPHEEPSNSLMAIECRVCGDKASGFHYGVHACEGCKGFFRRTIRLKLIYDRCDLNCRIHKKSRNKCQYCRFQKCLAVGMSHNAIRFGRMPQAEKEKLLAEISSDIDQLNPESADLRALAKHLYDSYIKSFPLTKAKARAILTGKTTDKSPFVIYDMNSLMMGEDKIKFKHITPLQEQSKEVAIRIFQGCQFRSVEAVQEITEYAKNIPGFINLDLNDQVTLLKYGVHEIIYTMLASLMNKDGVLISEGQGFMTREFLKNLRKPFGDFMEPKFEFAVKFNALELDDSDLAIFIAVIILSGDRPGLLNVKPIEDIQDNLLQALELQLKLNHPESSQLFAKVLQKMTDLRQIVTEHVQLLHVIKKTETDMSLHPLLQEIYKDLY

[2] = molecular target: T1, Peroxisome proliferator-activated receptor gamma (Mus musculus); assay: Binding affinity to PPARgamma in C57BL/6J mouse macrophages assessed as increase in CD36 mRNA level at 5 uM after 48 hrs by real-time PCR analysis
[3] = molecular target: T2, Fatty acid-binding protein, adipocyte (Homo sapiens, UniProt P15090); assay: Binding affinity to AFABP in […] C8PA cells assessed as blocked of protein interaction with hormone sensitive lipase at 10 uM after 2 to 4 hrs by FRET analysis; assay type: cell-based
Target sequence in this assay (P15090 2-132 limits assumed): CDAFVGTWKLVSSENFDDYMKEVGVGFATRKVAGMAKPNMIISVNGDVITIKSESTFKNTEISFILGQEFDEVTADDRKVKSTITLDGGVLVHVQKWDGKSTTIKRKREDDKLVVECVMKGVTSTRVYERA

[4] = molecular target: T2, Fatty acid-binding protein, adipocyte; assay: Displacement of […] 1-anilinonaphthalene 8-sulfonic acid from AFABP expressed in Escherichia coli BL21 (DE3) by fluorescence spectrophotometry
Target sequence in this assay (P15090 whole entry): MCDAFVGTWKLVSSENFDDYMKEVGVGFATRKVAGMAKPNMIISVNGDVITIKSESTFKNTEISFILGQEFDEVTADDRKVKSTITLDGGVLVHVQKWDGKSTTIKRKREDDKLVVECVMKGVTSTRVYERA

[5] = molecular target: Fatty acid-binding protein 5 (Homo sapiens, UniProt Q01469); assay: Displacement of […] 1-anilinonaphthalene 8-sulfonic acid from EFABP expressed in Escherichia coli BL21 (DE3) by fluorescence spectrophotometry
[6] = molecular target: T1, Peroxisome proliferator-activated receptor gamma (Mus musculus); assay: Binding affinity to PPARgamma in C57BL/6J mouse macrophages assessed as increase in CD36 mRNA level at 500 nM after 48 hrs by real-time PCR analysis
[7] = molecular target: Fatty acid-binding protein, heart (Homo sapiens, UniProt P05413); assay: Displacement of […] 1-anilinonaphthalene 8-sulfonic acid from HFABP expressed in Escherichia coli BL21 (DE3) by fluorescence spectrophotometry
Macrophage [8] = assay: Antiinflammatory activity in C57BL/6J mouse macrophages assessed as inhibition of LPS-stimulated TNFalpha release pretreated for 48 hrs before LPS challenge measured after 24 hrs by ELISA; assay type: functional, cell-based
[9] = molecular target: T3, Fatty acid-binding protein, liver (Homo sapiens, UniProt P07148); assay: Displacement of […] 1-anilinonaphthalene 8-sulfonic acid from LFABP expressed in Escherichia coli BL21 (DE3) by fluorescence spectrophotometry
T3 sequence (P07148 whole entry): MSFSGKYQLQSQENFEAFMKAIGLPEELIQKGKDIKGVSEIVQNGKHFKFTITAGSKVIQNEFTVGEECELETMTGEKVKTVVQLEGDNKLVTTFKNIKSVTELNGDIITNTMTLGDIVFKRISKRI

[10] = molecular target: T2, Fatty acid-binding protein, adipocyte; assay: Binding affinity to AFABP in forskolin-stimulated […] C8PA cells assessed as blocked of protein interaction with hormone sensitive lipase at 1 uM after 2 to 4 hrs by FRET analysis; assay type: cell-based
Target sequence in this assay (P15090 2-132 limits assumed): as the sequence (P15090 2-132 limits assumed) above

Macrophage [11] = assay: Antiinflammatory activity in C57BL/6J mouse macrophages assessed as inhibition of LPS-stimulated IL6 release pretreated for 48 hrs before LPS challenge measured after 24 hrs by ELISA; assay type: functional, cell-based
[12] = molecular target: T2, Fatty acid-binding protein, adipocyte; assay: Binding affinity to AFABP in […] C8PA cells assessed as blocked of protein interaction with hormone sensitive lipase at 1 uM after 2 to 4 hrs by FRET analysis; assay type: cell-based
Target sequence in this assay (P15090 2-132 limits assumed): as above

[13] = molecular target: T4, Peroxisome proliferator-activated receptor gamma (Homo sapiens) (UniProt P37231); assay: Activation of PPARgamma expressed in african green monkey CV1 cells at 0.5 to 25 uM after 24 hrs by luciferase reporter gene assay; assay type: cell-based; conditions: CV-1
T4 sequence (whole entry): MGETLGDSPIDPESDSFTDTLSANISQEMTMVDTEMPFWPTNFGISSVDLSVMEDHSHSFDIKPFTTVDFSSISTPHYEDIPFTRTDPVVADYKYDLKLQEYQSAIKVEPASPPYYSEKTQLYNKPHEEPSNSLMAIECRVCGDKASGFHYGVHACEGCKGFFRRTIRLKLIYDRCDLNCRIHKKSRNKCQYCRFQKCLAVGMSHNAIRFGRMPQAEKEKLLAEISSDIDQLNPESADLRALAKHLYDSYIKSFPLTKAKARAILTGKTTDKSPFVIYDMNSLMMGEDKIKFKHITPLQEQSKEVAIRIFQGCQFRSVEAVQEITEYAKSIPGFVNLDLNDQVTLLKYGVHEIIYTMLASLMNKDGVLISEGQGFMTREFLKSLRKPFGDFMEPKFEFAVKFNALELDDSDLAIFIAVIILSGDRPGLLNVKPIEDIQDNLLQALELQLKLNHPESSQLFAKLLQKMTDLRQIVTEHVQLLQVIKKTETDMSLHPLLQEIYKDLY

[14] = molecular target: T5, Fatty acid-binding protein, intestinal (Homo sapiens, UniProt P12104); assay: Displacement of […] 1-anilinonaphthalene 8-sulfonic acid from IFABP expressed in Escherichia coli BL21 (DE3) by fluorescence spectrophotometry
T5 sequence (P12104 whole entry): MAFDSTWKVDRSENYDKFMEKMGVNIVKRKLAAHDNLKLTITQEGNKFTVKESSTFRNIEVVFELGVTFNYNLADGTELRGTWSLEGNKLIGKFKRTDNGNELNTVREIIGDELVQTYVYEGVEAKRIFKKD

[15] = molecular target: T1, Peroxisome proliferator-activated receptor gamma (Mus musculus); assay: Binding affinity to PPARgamma in C57BL/6J mouse macrophages assessed as increase in Cpt1alpha mRNA level at 500 nM after 48 hrs by real-time PCR analysis
[16] = molecular target: T2, Fatty acid-binding protein, adipocyte; assay: Binding affinity to AFABP in forskolin-stimulated […] C8PA cells assessed as blocked of protein interaction with hormone sensitive lipase at 10 uM after 2 to 4 hrs by FRET analysis; assay type: cell-based
Target sequence in this assay (P15090 2-132 limits assumed): as the sequence (P15090 2-132 limits assumed) above

Macrophage [17] = assay: Antiinflammatory activity in C57BL/6J mouse macrophages assessed as inhibition of LPS-stimulated MCP1 release pretreated for 48 hrs before LPS challenge measured after 24 hrs by ELISA; assay type: functional, cell-based

Chain of Fatty acid-binding protein 5 (Q01469 whole entry): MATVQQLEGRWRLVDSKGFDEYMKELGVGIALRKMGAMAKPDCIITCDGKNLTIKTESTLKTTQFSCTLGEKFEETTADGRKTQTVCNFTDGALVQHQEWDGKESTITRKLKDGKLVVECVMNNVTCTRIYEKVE
Chain of Fatty acid-binding protein, heart (P05413 whole entry): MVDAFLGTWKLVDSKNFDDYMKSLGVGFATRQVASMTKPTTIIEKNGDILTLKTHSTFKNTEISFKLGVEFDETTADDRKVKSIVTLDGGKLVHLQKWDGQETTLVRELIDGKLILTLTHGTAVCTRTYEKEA

Row | Activity [1] | Activity [2] | Activity [3] | Ki [4] [nM] | Ki [5] [µM] | Activity [6] | Ki [7] [µM] | Ki [9] [µM] | Activity [10] | Activity [12] | Activity [13] | Ki [14] [µM] | Activity [15] | Activity [16] | Compound | Activity (Macrophage [8]) | Activity (Macrophage [11]) | Activity (Macrophage [17])
1 | Active | Active |  |  |  |  |  |  |  |  |  |  |  |  | CCCCC/C=C/C=C1/C(=O)C=C[C@@H]1C/C=C\CCCC(=O)O |  |  | 
2 |  |  | Active | 670 | 3.4 | inactive | 9.07 | 8.17 | inactive | Active | inactive | 6.57 | inactive | Active | COC(=O)c1sc(-c2cccs2)cc1NC(=O)/C=C/C(=O)O | Active | Active | Active
